From article PMC10862539, “Chelation of Mitochondrial Iron as an Antiparasitic Strategy” (ACS Infectious Diseases, 2024)
Where two headings read alike, the source gives them in different places.

Experiments:
Human fibroblast BJ1 = assay: Drug sensitivity assay, human fibroblast BJ1 (CellTiter-Glo); type: cell-based; conditions: for EC50: 48 h
Experimental: (§1) All organisms were cultivated according to the conditions summarized in Table S2, which also includes strain specifications. Dose–response curves were obtained by their cultivation on 96 well plates in a 2-fold series dilution of the appropriate drug, in a total volume of 200 μL (with the exception of P. falciparum, where the total volume was 100 μL). Iron supplementation was achieved by mixing the compound with Fe-NTA in an equimolar ratio prior to setting up the experiment. Results were plotted and processed using Prism 8.0 (GraphPad Software). A two-tailed unpaired t-test was performed to assess the significance of the difference between mitoDFO with and without added iron. Selectivity was calculated as the ratio of the average EC50 value for human fibroblasts to the average EC50 value for the appropriate pathogen. All data were obtained from a minimum of three independent biological replicates.

T. brucei 427 (BSF) = assay: Drug sensitivity assay, T. brucei 427 bloodstream form (resazurine); type: cell-based, Trypanosoma brucei; conditions: for selectivity (for −Fe): EC50 human fibroblasts / EC50 T. brucei 427 (BSF); for EC50: Trypanosoma brucei, 72 h
Experimental: as §1

T. gambiense (BSF) = assay: Drug sensitivity assay, T. gambiense bloodstream form (resazurine); type: cell-based, Trypanosoma gambiense; conditions: for selectivity (for −Fe): EC50 human fibroblasts / EC50 T. gambiense (BSF); for EC50: Trypanosoma brucei, 72 h
Experimental: as §1

L. mexicana (amastigote) = assay: Drug sensitivity assay, axenic L. mexicana amastigote (flow cytometry); type: cell-based, Leishmania mexicana; conditions: for EC50: Leishmania mexicana
Experimental: as §1

L. major (promastigote) = assay: Drug sensitivity assay, L. major promastigote (flow cytometry); type: cell-based; conditions: for EC50: Leishmania major, 120 h
Experimental: as §1

C. albicans = assay: Drug sensitivity assay, C. albicans (OD600); type: cell-based, Candida albicans; conditions: for EC50: Candida albicans, 48 h
Experimental: as §1

G. intestinalis = assay: Drug sensitivity assay, G. intestinalis (flow cytometry); type: cell-based; conditions: for EC50: Giardia duodenalis, 24 h
Experimental: as §1

N. fowleri = assay: Drug sensitivity assay, N. fowleri (flow cytometry); type: cell-based; conditions: for selectivity (for −Fe): EC50 human fibroblasts / EC50 N. fowleri; for EC50: Naegleria fowleri, 72 h
Experimental: as §1

[1] = system: Trypanosoma brucei 427 bloodstream forms; assay: T. brucei growth curves and doubling time (flow cytometry); type: cell-based; conditions: for Average doubling time: calculated between 24 and 48 h
Experimental: Bloodstream T. brucei 427 cells were inoculated to a concentration of […] and incubated with the addition of mitoDFO (0.025 and 0.1 μM) or DFO (2.5 and 10 μM) in aerobic flasks in a total volume of 5 mL in 5% CO2 at 37 °C. Control with no compound was used to obtain reference values. At time points 24, 36, 48, and 72 h, a 20 μL sample was collected, diluted in growth medium, and measured on a Guava EasyCyte 8HT flow cytometer (Luminex) to assess concentration in previously experimentally prepared settings. The culture was simultaneously observed by light microscopy to confirm the cell viability. The growth curve was plotted by using Prism 8.0 (GraphPad Software). All conditions were measured in three biologically independent replicates. Doubling time was calculated between 24 and 48 h time points using the online calculator,[45] and each of the conditions was compared to the untreated culture using a two-tailed unpaired t-test.

[2] = system: cytosolic pyruvate kinase; assay: Pyruvate kinase activity in cytosolic fraction of treated T. brucei 427; type: cell-based, Trypanosoma brucei; conditions: 0.12 μM compound, 24 h
Experimental: T. brucei 427 bloodstream forms were preincubated for 24 h in appropriate conditions (0.12 μM mitoDFO, 0.12 μM DFO, and no addition) and harvested, and cytosolic and mitochondrial fractions were separated by digitonin fractionation as described previously.[46] Briefly, cells were spun down (1200 g, 15 min, 4 °C) and resuspended in SHE buffer (250 mM sucrose, 25 mM HEPES, 1 mM EDTA, pH 7.4), and protein concentration was measured using a BCA kit (Sigma-Aldrich). Subsequently, cells were transferred into HBSS (Sigma-Aldrich) and digitonin (Calbiochem) was added in the protein/digitonin ratio of 1/0.15 for 4 min and spun (21 000 g, 2 min, 4 °C). […] The activities of cytosolic pyruvate kinase and mitochondrial threonine dehydrogenase were assessed in all conditions using the spectrophotometric assay at […], as described in ref ([46]), and served both as markers of successful fraction preparation and to assess the effect of the studied compounds. Briefly, pyruvate kinase was measured in TEA buffer (0.1 M triethanolamine, 5 mM MgSO4, 50 mM KCl, pH 7.6) with added 2.8 mM phosphoenolpyruvate, 2 mM ADP, 0.3 mM NADH, and lactate dehydrogenase. Threonine dehydrogenase was measured in 0.2 M Tris–HCl buffer, pH 8.6, 0.25 KCl with 120 mM threonine, and 2.5 mM NAD^+. Fumarase was measured at […] in 2 mM Tris–HCl buffer, pH 7.5, with 20 mM malate.

murine macrophage = assay: Intracellular L. mexicana infection assay, macrophage population; type: cell-based, mouse; conditions: Mus musculus, Macrophage, read-out: EC50 infection assay murine macrophage
Experimental: (§2) Approximately 10 000 murine macrophages per well were seeded on 96 well plate, and a suspension of 60 000 L. mexicana GFP-expressing promastigotes was added to each well and left to infect the mammal cells for 72 h in a cultivation medium under the conditions described in Table S2. 2-fold dilution series starting with 100 μM of either mitoDFO, DFO, or Amphotericin B in a regular growth medium were added, and cultures were incubated for further 72 h in the same conditions. Macrophage cells were washed and resuspended in growth medium and detached by pipetting, and their concentration in each well was measured on a Guava EasyCyte 8HT flow cytometer (Luminex). The GFP signal of internalized L. mexicana amastigotes in each macrophage was detected using a 488 nm excitation laser and a 525/30 nm detector. Median fluorescence graphs were plotted, and EC50 values for both macrophages and intracellular L. mexicana were calculated using Prism 8.0 (GraphPad Software).

[3] = system: intracellular Leishmania mexicana amastigotes; assay: Intracellular L. mexicana infection assay, GFP amastigotes in macrophages; type: cell-based; conditions: for EC50: Leishmania mexicana, Macrophage, read-out: EC50 infection assay Leishmania mexicana
Experimental: as §2

[4] = axenic monoculture, read-out: EC50 axenic Leishmania mexicana
[5] = iron-free compound, L. mexicana (amastigote), 120 h, read-out: EC50 –Fe
[6] = pre-treated with equimolar iron, L. mexicana (amastigote), 120 h, read-out: EC50 +Fe
[7] = approximately half the EC50 concentration of the compound

CC(=O)N(O)CCCCCNC(=O)CCC(=O)N(O)CCCCCNC(=O)CCC(=O)N(O)CCCCCN(CCCCCCCCCC[P+](c1ccccc1)(c1ccccc1)c1ccccc1)CCCCCCCCCC[P+](c1ccccc1)(c1ccccc1)c1ccccc1 [mitoDFO]
EC50 (Human fibroblast BJ1; Homo sapiens, Fibroblast, read-out: EC50 –Fe): 8.9 ± 3.2 µM
DFO/mitoDFO ratio (−Fe) (Human fibroblast BJ1; Human fibroblast BJ1): >11.2
mitoDFO EC50 ratio + Fe/–Fe (Human fibroblast BJ1; Human fibroblast BJ1): 2.5
selectivity (for −Fe) (T. brucei 427 (BSF)): 151
DFO/mitoDFO ratio (−Fe) (T. brucei 427 (BSF); T. brucei 427 (BSF)): 372.9
mitoDFO EC50 ratio + Fe/–Fe (T. brucei 427 (BSF); T. brucei 427 (BSF)): 2.1
EC50 (T. brucei 427 (BSF); read-out: EC50 –Fe): 0.059 ± 0.022 µM
selectivity (for −Fe) (T. gambiense (BSF)): 49
DFO/mitoDFO ratio (−Fe) (T. gambiense (BSF); T. gambiense (BSF)): 13.7
mitoDFO EC50 ratio + Fe/–Fe (T. gambiense (BSF); T. gambiense (BSF)): 1.2
EC50 (T. gambiense (BSF); GAMBIENSE, read-out: EC50 –Fe): 0.181 ± 0.043 µM
selectivity (for −Fe) (L. mexicana (amastigote); EC50 human fibroblasts / EC50 L. mexicana (amastigote)): 6
DFO/mitoDFO ratio (−Fe) (L. mexicana (amastigote); L. mexicana (amastigote)): >15.6
mitoDFO EC50 ratio + Fe/–Fe (L. mexicana (amastigote); L. mexicana (amastigote)): 1.5
EC50 (L. mexicana (amastigote); [4]): 1.56 ± 0.5 µM
EC50 (L. mexicana (amastigote); [5]): 1.6 ± 0.5 µM
EC50 (L. mexicana (amastigote); [6]): 2.4 ± 0.5 µM
selectivity (for −Fe) (L. major (promastigote); EC50 human fibroblasts / EC50 L. major (promastigote)): 5
DFO/mitoDFO ratio (−Fe) (L. major (promastigote); L. major (promastigote)): >13.2
mitoDFO EC50 ratio + Fe/–Fe (L. major (promastigote); L. major (promastigote)): 4.8
EC50 (L. major (promastigote); read-out: EC50 –Fe): 1.9 ± 0.6 µM
DFO/mitoDFO ratio (−Fe) (C. albicans; C. albicans): >27.8
mitoDFO EC50 ratio + Fe/–Fe (C. albicans; C. albicans): 2.6
EC50 (C. albicans; read-out: EC50 –Fe): 3.6 ± 1.7 µM
selectivity (for −Fe) (C. albicans; EC50 human fibroblasts / EC50 C. albicans): 2
EC50 (G. intestinalis; read-out: EC50 –Fe): > 50 µM
effect on G. intestinalis (G. intestinalis; in words): not affected
selectivity (for −Fe) (N. fowleri): 1
DFO/mitoDFO ratio (−Fe) (N. fowleri; N. fowleri): 2.9
mitoDFO EC50 ratio + Fe/–Fe (N. fowleri; N. fowleri): 3.0
EC50 (N. fowleri; read-out: EC50 –Fe): 6.7 ± 0.7 µM
Average doubling time ([1]; 0.025 μM mitoDFO): 8.07 h
cell proliferation (growth curve) [1, 7]: does not affect cell proliferation
cell proliferation (growth curve) ([1]; twice the EC50 concentration): stops its growth
pyruvate kinase activity [2]: no difference in activity
EC50 (murine macrophage; 72 h): 4.67 ± 1.18 µM
decrease in EC50 concentration, intracellular amastigotes versus axenic parasites [3]: 2 fold
EC50 ([3]; 72 h): 0.67 ± 0.24 µM

CC(=O)N(O)CCCCCNC(=O)CCC(=O)N(O)CCCCCNC(=O)CCC(=O)N(O)CCCCCN [DFO, Deferoxamine, reference compound]
EC50 (Human fibroblast BJ1; iron-free compound, Human fibroblast BJ1, read-out: EC50 –Fe): > 100 µM
EC50 (Human fibroblast BJ1; pre-treated with equimolar iron, Human fibroblast BJ1, read-out: EC50 +Fe): > 100 µM
selectivity (for −Fe) (T. brucei 427 (BSF)): >5
EC50 (T. brucei 427 (BSF); iron-free compound, T. brucei 427 (BSF), read-out: EC50 –Fe): 22 ± 1.2 µM
EC50 (T. brucei 427 (BSF); pre-treated with equimolar iron, T. brucei 427 (BSF), read-out: EC50 +Fe): > 50 µM
selectivity (for −Fe) (T. gambiense (BSF)): >40
EC50 (T. gambiense (BSF); iron-free compound, T. gambiense (BSF), read-out: EC50 –Fe): 2.47 ± 1.16 µM
EC50 (T. gambiense (BSF); pre-treated with equimolar iron, T. gambiense (BSF), read-out: EC50 +Fe): > 25 µM
EC50 (L. mexicana (amastigote); [4]): > 25 µM
EC50 (L. mexicana (amastigote); [5]): > 25 µM
EC50 (L. mexicana (amastigote); [6]): > 25 µM
EC50 (L. major (promastigote); iron-free compound, L. major (promastigote), read-out: EC50 –Fe): > 25 µM
EC50 (L. major (promastigote); pre-treated with equimolar iron, L. major (promastigote), read-out: EC50 +Fe): > 25 µM
EC50 (C. albicans; iron-free compound, C. albicans, read-out: EC50 –Fe): > 100 µM
EC50 (C. albicans; pre-treated with equimolar iron, C. albicans, read-out: EC50 +Fe): > 100 µM
EC50 (G. intestinalis; iron-free compound, G. intestinalis, read-out: EC50 –Fe): > 100 µM
EC50 (G. intestinalis; pre-treated with equimolar iron, G. intestinalis, read-out: EC50 +Fe): > 100 µM
selectivity (for −Fe) (N. fowleri): >5
EC50 (N. fowleri; iron-free compound, N. fowleri, read-out: EC50 –Fe): 19.5 ± 5.9 µM
EC50 (N. fowleri; pre-treated with equimolar iron, N. fowleri, read-out: EC50 +Fe): > 100 µM
Average doubling time ([1]; 2.5 μM DFO): 8.28 h
Average doubling time ([1]; 10 μM DFO): 14.17 h
cell proliferation (growth curve) [1, 7]: slows down cell proliferation
pyruvate kinase activity [2]: no difference in activity
EC50 (murine macrophage; infected macrophages, 72 h treatment): 45.3 ± 3.09 µM
EC50 ([3]; intracellular amastigotes, 72 h treatment): 47.1 ± 2.91 µM
